In patent US9931320B2, “Parasiticidal oral veterinary compositions comprising systemically-acting active agents, methods and uses thereof” (MERIAL INC., priority 2012, dated 2018):

Key:
Assay type in all cases: in vivo
[1] = test system: fleas (Ctenocephalides felis); assay: Efficacy of soft chews against induced flea infestations on dogs (Example 2); settings: for % Reduction Fleas: soft chew of Table 6, once on Day 0, dogs; for Percent reduction (efficacy) against fleas: Table 6 soft chew, treated once on Day 0, dogs
Procedure: Sixteen beagles were studied to determine the effectiveness of a soft chewable veterinary composition comprising Compound A against induced infestations of Dermacentor variabilis and Ctenocephalides felis.
Four Treatment Groups containing four dogs each were formed. Dogs in Group 1 were untreated. […] All dogs were treated once on Day 0.
All dogs were infested with approximately 100 C. felis on Days −1, 8, 15, 22, 29, 35, 43, 57 and 71. All dogs were also infested with approximately 50 D. variabilis on Days −1, 7, 14, 21, 28, 34 and 42. Both ticks and fleas were counted upon removal on Days 2, 9, 16, 23, 30, 36 and 44. Fleas were counted upon removal for all Treatment Groups on Days 58 and 72.

[2] = test system: fleas (Ctenocephalides felis); assay: Efficacy and speed of kill against fleas on dogs (Example 3)
Procedure: Three Treatment Groups were formed. Dogs in Group 1 were untreated. […] Groups 1 and 2 contained 12 dogs each and Group 3 contained 4 dogs. All dogs were treated once on Day 0.
All dogs were infested with approximately 75 C. felis on Days 0 and 7. The dogs in Group 3 and dogs in pre-allocated subgroups in Groups 1 and 2 were also infested with approximately 75 C. felis on Days 14, 21 and 28. Fleas were counted upon removal from selected subjects at 30 minutes, 4 hours, and 12 hours after treatment or infestation on Days 0 and 7. On Days 14, 21 and 28, fleas were counted upon removal from selected subjects at 8 and 12 hours after infestation. […] Following infestation at later timepoints, the composition started working within 30 minutes, and by 12 hours after infestation on Days 7, 14 and 21, efficacy of >98% was achieved.

[3] = test system: Amblyomma americanum (lone star tick); assay: Efficacy against induced Amblyomma americanum infestations on dogs (Example 4); settings: at least approx. 2.5 mg/kg once on Day 0
Procedure: Two treatment groups were formed, each containing eight dogs each. Dogs in Group 1 were untreated. Dogs in Group 2 were treated once on Day 0 with soft chewable compositions containing Compound A at a concentration to deliver a dose of at least approximately 2.5 mg/kg.
Ticks were counted on Days 2, 9, 16, 23, 30 and 38. The percent efficacy of the treated group versus the untreated control group 48 hours after infestation exceeded 91% at Days 2, 9, 16 and 23, with percent efficacy values of 99.2, 98.7, 99.4 and 91.7, respectively (p-values≤0.001). At Day 38 the percent efficacy was measured at 89.7%.

O=C(CNC(=O)c1ccc(C2=NOC(c3cc(Cl)cc(C(F)(F)F)c3)(C(F)(F)F)C2)c2ccccc12)NCC(F)(F)F (centres unmarked) [Compound A, 4-[5-[3-chloro-5-(trifluoromethyl)phenyl]-4,5-dihydro-5-(trifluoromethyl)-3-isoxazolyl]-N-[2-oxo-2-[(2,2,2-trifluoroethyl)amino]ethyl]-1-naphthalenecarboxamide]
% Reduction Fleas ([1]; Group 2, approximately 1.5 mg/kg, Day 2): 100.0% | % Reduction Fleas ([1]; Group 2, approximately 1.5 mg/kg, Day 9): 100.0% | % Reduction Fleas ([1]; Group 2, approximately 1.5 mg/kg, Day 16): 100.0% | % Reduction Fleas ([1]; Group 2, approximately 1.5 mg/kg, Day 23): 100.0% | % Reduction Fleas ([1]; Group 2, approximately 1.5 mg/kg, Day 30): 100.0% | % Reduction Fleas ([1]; Group 2, approximately 1.5 mg/kg, Day 36): 99.2% | % Reduction Fleas ([1]; Group 2, approximately 1.5 mg/kg, Day 44): 97.8% | % Reduction Fleas ([1]; Group 2, approximately 1.5 mg/kg, Day 58): 89.4% | % Reduction Fleas ([1]; Group 2, approximately 1.5 mg/kg, Day 72): 79.6% | % Reduction Fleas ([1]; Group 3, approximately 2.5 mg/kg, Day 2): 100.0% | % Reduction Fleas ([1]; Group 3, approximately 2.5 mg/kg, Day 9): 100.0% | % Reduction Fleas ([1]; Group 3, approximately 2.5 mg/kg, Day 16): 100.0% | % Reduction Fleas ([1]; Group 3, approximately 2.5 mg/kg, Day 23): 100.0% | % Reduction Fleas ([1]; Group 3, approximately 2.5 mg/kg, Day 30): 100.0% | % Reduction Fleas ([1]; Group 3, approximately 2.5 mg/kg, Day 36): 100.0% | % Reduction Fleas ([1]; Group 3, approximately 2.5 mg/kg, Day 44): 99.3% | % Reduction Fleas ([1]; Group 3, approximately 2.5 mg/kg, Day 58): 96.7% | % Reduction Fleas ([1]; Group 3, approximately 2.5 mg/kg, Day 72): 94.4% | % Reduction Fleas ([1]; Group 4, approximately 3.5 mg/kg, Day 2): 100.0% | % Reduction Fleas ([1]; Group 4, approximately 3.5 mg/kg, Day 9): 100.0% | % Reduction Fleas ([1]; Group 4, approximately 3.5 mg/kg, Day 16): 100.0% | % Reduction Fleas ([1]; Group 4, approximately 3.5 mg/kg, Day 23): 100.0% | % Reduction Fleas ([1]; Group 4, approximately 3.5 mg/kg, Day 30): 100.0% | % Reduction Fleas ([1]; Group 4, approximately 3.5 mg/kg, Day 36): 99.6% | % Reduction Fleas ([1]; Group 4, approximately 3.5 mg/kg, Day 44): 98.3% | % Reduction Fleas ([1]; Group 4, approximately 3.5 mg/kg, Day 58): 95.2% | % Reduction Fleas ([1]; Group 4, approximately 3.5 mg/kg, Day 72): 80.6% | Percent reduction (efficacy) against fleas ([1]; through Day 44, all groups (approx. 1.5, 2.5 or 3.5 mg/kg)): above 95% | Percent reduction (efficacy) against fleas ([1]; through Day 58, Groups 3 and 4): above 95% | Percent reduction (efficacy) against fleas ([1]; through and including Day 30, all treatment groups (approx. 1.5, 2.5 or 3.5 mg/kg)): 100% | Flea efficacy ([2]; 12 hours after administration on Day 0, soft chews of Tables 7 and 8, approx. 2.5 mg/kg): 100% | Time until compositions started working against fleas ([2]; after treatment on Day 0, approx. 2.5 mg/kg): ≤ 30 min | Flea efficacy ([2]; by 12 hours after infestation on Days 7, 14 and 21, soft chews of Tables 7 and 8, approx. 2.5 mg/kg once on Day 0): > 98% | Time until composition started working against fleas ([2]; following infestation at later timepoints, approx. 2.5 mg/kg once on Day 0): ≤ 30 min | Percent efficacy versus untreated control group ([3]; 48 hours after infestation, at Days 2, 9, 16 and 23, Table 10 soft chew): exceeded 91% | Percent efficacy versus untreated control group ([3]; Day 2, 48 hours after infestation, Table 10 soft chew): 99.2% | Percent efficacy versus untreated control group ([3]; Day 9, 48 hours after infestation, Table 10 soft chew): 98.7% | Percent efficacy versus untreated control group ([3]; Day 16, 48 hours after infestation, Table 10 soft chew): 99.4% | Percent efficacy versus untreated control group ([3]; Day 23, 48 hours after infestation, Table 10 soft chew): 91.7% | Percent efficacy versus untreated control group ([3]; Day 38, Table 10 soft chew): 89.7% | Duration of excellent control of Amblyomma americanum ([3]; Table 10 soft chew): > 30 days
